# Values of other authors, collected in US11566140B2, “Exterior coating composition” (Troy Corporation, priority 2019, dated 2023).
# Details: 5 grams of pure BIT completely soluble in 100 ml of methanol
smiles,measurement,value
"O=c1[nH]sc2ccccc12 [BIT, 1,2-benzisothiazolin-3-one]",solubility in methanol,greater than 5%
